The text below walks through data of patent US4489089A, “Substituted N-[ω-(1H-imidazol-1-yl)alkyl]-amides” (American Cyanamid Company, priority 1984, dated 1984).

By inhibition is commonly meant the change of the read-out against control, counted positive when it falls. Lower therefore signals a response near the control.

The structures appear in SMILES notation.

One test deals with T1, thromboxane synthetase (Rattus norvegicus, UniProt P49430).
T1 construct: The platelets were isolated by centrifuging the PRP for 10 minutes at 1060×g; endogenous in cells; host or cells: washed platelets from arterial blood of Okamoto-Aoki spontaneously hypertensive rats (Taconic Farms)
T1 sequence (P49430 1-533): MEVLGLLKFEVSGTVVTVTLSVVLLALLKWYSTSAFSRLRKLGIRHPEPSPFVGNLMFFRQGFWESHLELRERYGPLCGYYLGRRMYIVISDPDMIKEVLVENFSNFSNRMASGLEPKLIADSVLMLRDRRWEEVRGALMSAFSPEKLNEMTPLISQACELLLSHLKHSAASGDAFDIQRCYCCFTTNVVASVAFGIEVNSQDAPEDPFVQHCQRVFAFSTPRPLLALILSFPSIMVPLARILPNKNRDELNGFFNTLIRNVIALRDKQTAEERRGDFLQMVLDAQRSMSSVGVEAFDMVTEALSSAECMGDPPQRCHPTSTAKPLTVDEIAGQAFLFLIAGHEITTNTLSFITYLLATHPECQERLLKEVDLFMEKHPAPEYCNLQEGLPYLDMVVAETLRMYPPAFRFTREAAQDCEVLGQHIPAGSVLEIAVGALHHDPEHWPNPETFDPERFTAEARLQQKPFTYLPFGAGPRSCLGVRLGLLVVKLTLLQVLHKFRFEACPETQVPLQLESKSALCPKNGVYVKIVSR
Kind of test: inhibition of thromboxane (TX) formation in rat platelets, TXB2 determined by radio-immunoassay (RIA). The settings on record: 10^-4 M; SHR washed platelets; 10 minutes at 37° C. The class given is cell-based, Okamoto-Aoki spontaneously hypertensive rats (SHR). On the procedure: Under urethan anesthesia, […]. of arterial blood was collected in one ml. of 3.2% sodium citrate in a polystyrene tube from Okamoto-Aoki spontaneously hypertensive rats (SHR) (Taconic Farms, Germantown, NY) between 19 and 24 weeks in age. The blood was diluted with 3 ml. cold saline and centrifuged at room temperature for 15 minutes at 460×g. The platelet rich plasma (PRP) was separated. The platelets were isolated by centrifuging the PRP for 10 minutes at 1060×g and were washed in 4 ml. cold oxygenated Krebs phosphate buffer, pH 7.4. The chilled platelets recovered from centrifuging at 800×g for 10 minutes were resuspended in oxygenated Krebs phosphate buffer and diluted to contain 4.5-6.0×10^4 platelts/μl.
The inhibition of thromboxane (TX) formation was studied by determing the concentration of thromboxane B2 (TXB2), the stable hydrolysis product of TXA2. Assay samples, prepared on ice, contained 200 μl. platelet suspension, 50 μl. saline, and 50 μl. vehicle or drug under study (OKY-1581, UK-37248-01, 1-benzylimidazole, or indomethacin). The samples were incubated for 10 minutes at 37° C. in a metabolic shaker. The reaction was terminated by immersing the tubes in an ice bath and adding 50 μl. of 0.5M citric acid. The samples were centrifuged for 10 minutes in a refrigerated centrifuge and the supernatants thus obtained were decanted and stored at -20° C. The TXB2 content for each sample was determined by a direct radio-immunoassay (RIA) utilizing a TXB2 specific RIA kit purchased from New England Nuclear, Boston, MA and expressed as pg TXB2 formed minute^-1 sample^-1, from which the percent inhibition of TXB2 formation was calculated. The results of this test on representative compounds of this invention appear in Table I
On to `O=C(NCCCn1ccnc1)c1ccco1` [Example 1, N-[3-(1H-Imidazol-1-yl)propyl]-2-furanecarboxamide], for which the inhibition at 100 µM is 97%.

The compound `O=C(NCCCn1ccnc1)c1sc2ccccc2c1Cl` [Example 2, 3-chloro-N--[3-(1H--imidazol-1-yl)propyl]benzo[b]thiophene-2-carboxamide] yielded an inhibition at 100 µM of 100%.

`O=C(NCCCn1ccnc1)c1sc2cc(F)ccc2c1Cl` [Example 3, 3-chloro-6-fluoro-N--[3-(1H--imidazol-1-yl)propyl]benzo[b]thiophene-2-carboxamide] had an inhibition at 100 µM of 96%.

Consider `Cc1ccc2c(Cl)c(C(=O)NCCCn3ccnc3)sc2c1` [Example 4, 3-chloro-N--[3-(1H--imidazol-1-yl)propyl]-6-methyl-benzo[b]thiophene-2-carboxamide], for which the inhibition at 100 µM turned out to be 96%.

As to `O=C(NCCCn1ccnc1)c1ccoc1` [Example 5, N-[3-(1H-Imidazol-1-yl)propyl]-3-furanecarboxamide], at 100 µM the inhibition was 78%.

The compound `O=C(NCCCn1ccnc1)c1ccc(Br)o1` [Example 6, 5-bromo-N--[3-(1H--imidazol-1-yl)propyl]-2-furanecarboxamide] had an inhibition at 100 µM of 82%.

As to `O=C(NCCCn1ccnc1)c1cccs1` [Example 7, N--[3-(1H--imidazol-1-yl)propyl]-2-thiophenecarboxamide], at 100 µM the inhibition was 93%.

Compound `Cc1ccc(C(=O)NCCCn2ccnc2)s1` [Example 8, N--[3-(1H--imidazol-1-yl)propyl]-5-methyl-2-thiophenecarboxamide] registered an inhibition at 100 µM of 96%.

As for `O=C(NCCCn1ccnc1)c1cc(Br)c(Br)s1` [Example 9, 4,5-dibromo-N--[3-(1H--imidazol-1-yl)propyl]-2-thiophenecarboxamide], the inhibition at 100 µM was 100%.

Compound `O=C(NCCCn1ccnc1)c1cc2ccccc2o1` [Example 10, N--[3-(1H--imidazol-1-yl)propyl]-2-benzofuranecarboxamide] had an inhibition at 100 µM of 97%.

For `O=C(NCCCn1ccnc1)c1cc2cc(Cl)ccc2s1` [Example 11, 5-chloro-N--[3-(1H--imidazol-1-yl)propyl]benzo[b]thiophene-2-carboxamide], testing at 100 µM gave an inhibition of 100%.

As for `O=C(C=Cc1ccco1)NCCCn1ccnc1` [Example 14, N--[3-(1H--imidazol-1-yl)propyl]-3-(2-furanyl)-2-propenamide], the inhibition at 100 µM came out at 78%.

`O=C(C=Cc1cccs1)NCCCn1ccnc1` [Example 15, N--[3-(1H--imidazol-1-yl)propyl]-3-(2-thienyl)-2-propenamide] returned an inhibition at 100 µM of 100%.

Regarding `O=C(NCCCn1ccnc1)c1ccc([N+](=O)[O-])o1` [Example 16], at 100 µM the inhibition was 64%.

`O=C(NCCCn1ccnc1)C(=O)c1cccs1` [Example 18, N--[3-(1H--imidazol-1-yl)propyl]-α-oxo-thiophene acetamide] showed an inhibition at 100 µM of 73%.

`O=C(NCCCn1ccnc1)c1ccc(Cl)s1` [Example 19, 5-chloro-N--[3-(1H--imidazol-1-yl)propyl]thiophene-2-carboxamide] returned an inhibition at 100 µM of 95%.

Consider `O=C(NCCn1ccnc1)c1sc2ccccc2c1Cl` [Example 20, 3-Chloro-N-[2-(1H-imidazol-1-yl)ethyl]benzo[b]thiophene-2-carboxamide], for which the inhibition at 100 µM was 70%.

Regarding `CCc1nccn1CCCNC(=O)c1sc2ccccc2c1Cl` [Example 22, 3-chloro-N--[3-(2-ethyl-1H--imidazol-1-yl)propyl]benzo[b]thiophene-2-carboxamide], 100 µM produced 55% inhibition.

Turning to `Cc1cn(CCCNC(=O)c2sc3ccccc3c2Cl)cn1` [Example 24, 3-chloro-N--[3-(4-methyl-1H--imidazol-1-yl)propyl]benzo[b]thiophene-2-carboxamide], the inhibition at 100 µM worked out at 98%.

Compound `Cc1cn(CCCNC(=O)c2cccs2)cn1` [Example 25, N--[3-(4-methyl-1H--imidazol-1-yl)propyl]thiophene-2-carboxamide] yielded an inhibition at 100 µM of 51%.

Compound `O=C(NCCCCn1ccnc1)c1ccco1` [Example 28, N-[4-(1H-Imidazol-1-yl)butyl]-2-furanecarboxamide] displayed an inhibition at 100 µM of 87%.

As to `O=C(NCCCCn1ccnc1)c1sc2ccccc2c1Cl` [Example 29, 3-chloro-N--[4-(1H--imidazol-1-yl)butyl]benzo[b]thiophene-2-carboxamide], the inhibition at 100 µM is 91%.

With `O=C(NCCCCn1ccnc1)c1cccs1` [Example 31, N--[4-(1H--imidazol-1-yl)butyl]thiophene-2-carboxamide], the inhibition at 100 µM was 95%.

Another test concerns spontaneously hypertensive rats of the Okamoto strain. Kind of test: hypotensive activity (mean arterial blood pressure) in spontaneously hypertensive rats. It is filed as in vivo. To be noted: 100 mg/kg or less by gavage, two doses 24 h apart; measured 28 hours after initial dose; mean of 1-3 rats; starting MABP 160±1.5 mm. How it is done: The novel compounds of the present invention are also active hypotensive agents and were tested for hypotensive activity by the method of P. S. Chan and D. Poorvin, Clinical and Experimental Hypertension, 1 (6), 817-830 (1979). Male, 16 week old, spontaneously hypertensive rats of the Okamoto strain, from Taconic Farms, Germantown, N.Y. having an average mean arterial blood pressure of 160±1.5 mm of mercury are used in the test. One to 3 rats are used per test compound. A rat is dosed by gavage with a test compound, suspended in 2% pre-boiled starch at a concentration of 50 mg/ml, at a dose of 100 mg/kg of body weight or less, with 0.9% sodium chloride loading at a dose 25 ml/kg of body weight. A second identical dose of the test compound, without sodium chloride loading is given 24 hours later. At 28 hours after the initial dose, the mean arterial blood pressure (MABP) is measured by the method of Chan and Poorvin vide supra. The procedure is repeated in a second and third rat when necessary. Based on the data obtained and using the three-stage "sequential probability ratio test" statistical method, the critieria for activity or retest are as follows:
If the blood pressure in the first rat is ≤116 mm mercury the compound is considered active. If the blood pressure is between […], a second rat is used. If the average blood pressure of the first and second rats is ≤122 mm the compound is considered active. If the average blood pressure is between 123 and 137 mm, a third rat is used. If the average blood pressure of the three rats is ≤128 mm the compound is considered active. The results of this test on representative compounds of the present invention appear in Table II below.
For `O=C(NCCCn1ccnc1)c1ccoc1` [Example 5, N-[3-(1H-Imidazol-1-yl)propyl]-3-furanecarboxamide], the “MABP (mean arterial blood pressure)” value was found to be 128 mm Hg.

As to `O=C(NCCCn1ccnc1)c1ccc([N+](=O)[O-])o1` [Example 16], the “MABP (mean arterial blood pressure)” value was found to be 114 mm Hg.

With `O=C(CCCc1cccs1)NCCCn1ccnc1` [Example 17, N--[3-(1H--imidazol-1-yl)propyl]-2-thiophenebutyramide], the “MABP (mean arterial blood pressure)” value was 121 mm Hg.

As to `O=C(NCCCn1ccnc1)C(=O)c1cccs1` [Example 18, N--[3-(1H--imidazol-1-yl)propyl]-α-oxo-thiophene acetamide], the “MABP (mean arterial blood pressure)” value amounted to 125 mm Hg.

With `O=C(NCCCn1ccnc1)c1ccc(Cl)s1` [Example 19, 5-chloro-N--[3-(1H--imidazol-1-yl)propyl]thiophene-2-carboxamide], the “MABP (mean arterial blood pressure)” value came to 125 mm Hg.

Turning to `O=C(NCCn1ccnc1)c1sc2ccccc2c1Cl` [Example 20, 3-Chloro-N-[2-(1H-imidazol-1-yl)ethyl]benzo[b]thiophene-2-carboxamide], the “MABP (mean arterial blood pressure)” value was determined as 117 mm Hg.

Consider `O=C(NCCCCn1ccnc1)c1ccc(Cl)s1` [Example 30, 5-chloro-N--[4-(1H--imidazol-1-yl)butyl]thiophene-2-carboxamide], for which the “MABP (mean arterial blood pressure)” value came to 118 mm Hg.

In the case of `O=C(NCCCCn1ccnc1)c1cccs1` [Example 31, N--[4-(1H--imidazol-1-yl)butyl]thiophene-2-carboxamide], the “MABP (mean arterial blood pressure)” value was determined as 114 mm Hg.
